{"source": "patent US9963442B2", "about": "“Pyridones as herbicides” (E I DU PONT DE NEMOURS AND COMPANY, priority 2014, dated 2018)", "key": {"[1]": {"tested_on": "waterhemp (common waterhemp, Amaranthus rudis)", "test": "Test C postemergence", "type": "in vivo", "conditions": "scale 0 to 100, 0 is no effect, 100 is complete control", "summary_of_the_method": "(§1)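 Visual rating on a 0–100 scale (100 = complete control) against untreated controls, 13–15 days after treatment in the greenhouse. Test chemical was formulated in a non-phytotoxic solvent with surfactant, applied to soil (loam/sand) at planting or to foliage of 1- to 4-leaf plants.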"}, "[2]": {"tested_on": "corn (Zea mays)", "test": "Test C postemergence", "type": "in vivo", "conditions": "scale 0 to 100, 0 is no effect, 100 is complete control", "summary_of_the_method": "as §1"}, "[3]": {"tested_on": "kochia (Kochia scoparia)", "test": "Test C postemergence", "type": "in vivo", "conditions": "scale 0 to 100, 0 is no effect, 100 is complete control", "summary_of_the_method": "as §1"}, "[4]": {"tested_on": "barnyardgrass (Echinochloa crus-galli)", "test": "Test C postemergence", "type": "in vivo", "conditions": "scale 0 to 100, 0 is no effect, 100 is complete control", "summary_of_the_method": "as §1"}, "[5]": {"tested_on": "oilseed rape (Brassica napus)", "test": "Test C postemergence", "type": "in vivo", "conditions": "scale 0 to 100, 0 is no effect, 100 is complete control", "summary_of_the_method": "as §1"}, "[6]": {"tested_on": "giant foxtail (Setaria faberii)", "test": "Test C postemergence", "type": "in vivo", "conditions": "scale 0 to 100, 0 is no effect, 100 is complete control", "summary_of_the_method": "as §1"}, "[7]": {"tested_on": "johnsongrass (Sorghum halepense)", "test": "Test C postemergence", "type": "in vivo", "conditions": "scale 0 to 100, 0 is no effect, 100 is complete control", "summary_of_the_method": "as §1"}, "[8]": {"tested_on": "yellow nutsedge (Cyperus esculentus)", "test": "Test C postemergence", "type": "in vivo", "conditions": "scale 0 to 100, 0 is no effect, 100 is complete control", "summary_of_the_method": "as §1"}, "[9]": {"tested_on": "velvetleaf (Abutilon theophrasti)", "test": "Test C postemergence", "type": "in vivo", "conditions": "scale 0 to 100, 0 is no effect, 100 is complete control", "summary_of_the_method": "as §1"}, "[10]": {"tested_on": "Italian ryegrass (Lolium multiflorum)", "test": "Test C postemergence", "type": "in vivo", "conditions": "scale 0 to 100, 0 is no effect, 100 is complete control", "summary_of_the_method": "as §1"}, "[11]": {"tested_on": "galium (catchweed bedstraw, Galium aparine)", "test": "Test C postemergence", "type": "in vivo", "conditions": "scale 0 to 100, 0 is no effect, 100 is complete control", "summary_of_the_method": "as §1"}, "[12]": {"tested_on": "winter wheat (Triticum aestivum)", "test": "Test C postemergence", "type": "in vivo", "conditions": "scale 0 to 100, 0 is no effect, 100 is complete control", "summary_of_the_method": "as §1"}, "[13]": {"tested_on": "ragweed (common ragweed, Ambrosia elatior)", "test": "Test C postemergence", "type": "in vivo", "conditions": "scale 0 to 100, 0 is no effect, 100 is complete control", "summary_of_the_method": "as §1"}, "[14]": {"tested_on": "blackgrass (Alopecurus myosuroides)", "test": "Test C postemergence", "type": "in vivo", "conditions": "scale 0 to 100, 0 is no effect, 100 is complete control", "summary_of_the_method": "as §1"}, "[15]": {"tested_on": "pigweed (Amaranthus retroflexus)", "test": "Test C postemergence", "type": "in vivo", "conditions": "scale 0 to 100, 0 is no effect, 100 is complete control", "summary_of_the_method": "as §1"}, "[16]": {"tested_on": "large (Lg) crabgrass (Digitaria sanguinalis)", "test": "Test C postemergence", "type": "in vivo", "conditions": "scale 0 to 100, 0 is no effect, 100 is complete control", "summary_of_the_method": "as §1"}, "[17]": {"tested_on": "morningglory (Ipomoea coccinea)", "test": "Test C postemergence", "type": "in vivo", "conditions": "scale 0 to 100, 0 is no effect, 100 is complete control", "summary_of_the_method": "as §1"}, "[18]": {"tested_on": "chickweed (common chickweed, Stellaria media)", "test": "Test C postemergence", "type": "in vivo", "conditions": "scale 0 to 100, 0 is no effect, 100 is complete control", "summary_of_the_method": "as §1"}}, "data": [{"molecule": "O=c1cccc(Oc2ncc(Cl)cn2)n1-c1ccc(Cl)cc1", "note": "[Compound 1, 1-(4-chlorophenyl)-6-[(5-chloro-2-pyrimidinyl)oxy]-2(1H)-pyridinone]", "values": [{"measurement": "Plant response rating, Waterhemp", "setting": "[1]; 16 g ai/ha", "result": 25}, {"measurement": "Plant response rating, Waterhemp", "setting": "[1]; 31 g ai/ha", "result": 80}, {"measurement": "Plant response rating, Waterhemp", "setting": "[1]; 62 g ai/ha", "result": 70}, {"measurement": "Plant response rating, Waterhemp", "setting": "[1]; 125 g ai/ha", "result": 90}, {"measurement": "Plant response rating, Corn", "setting": "[2]; 16 g ai/ha", "result": 5}, {"measurement": "Plant response rating, Corn", "setting": "[2]; 31 g ai/ha", "result": 5}, {"measurement": "Plant response rating, Corn", "setting": "[2]; 62 g ai/ha", "result": 10}, {"measurement": "Plant response rating, Corn", "setting": "[2]; 125 g ai/ha", "result": 10}, {"measurement": "Plant response rating, Kochia", "setting": "[3]; 16 g ai/ha", "result": 90}, {"measurement": "Plant response rating, Kochia", "setting": "[3]; 31 g ai/ha", "result": 90}, {"measurement": "Plant response rating, Kochia", "setting": "[3]; 62 g ai/ha", "result": 95}, {"measurement": "Plant response rating, Kochia", "setting": "[3]; 125 g ai/ha", "result": 95}, {"measurement": "Plant response rating, Barnyardgrass", "setting": "[4]; 16 g ai/ha", "result": 5}, {"measurement": "Plant response rating, Barnyardgrass", "setting": "[4]; 31 g ai/ha", "result": 5}, {"measurement": "Plant response rating, Barnyardgrass", "setting": "[4]; 62 g ai/ha", "result": 10}, {"measurement": "Plant response rating, Barnyardgrass", "setting": "[4]; 125 g ai/ha", "result": 10}, {"measurement": "Plant response rating, Oilseed Rape", "setting": "[5]; 16 g ai/ha", "result": 10}, {"measurement": "Plant response rating, Oilseed Rape", "setting": "[5]; 31 g ai/ha", "result": 30}, {"measurement": "Plant response rating, Oilseed Rape", "setting": "[5]; 62 g ai/ha", "result": 70}, {"measurement": "Plant response rating, Oilseed Rape", "setting": "[5]; 125 g ai/ha", "result": 80}, {"measurement": "Plant response rating, Foxtail, Giant", "setting": "[6]; 16 g ai/ha", "result": 5}, {"measurement": "Plant response rating, Foxtail, Giant", "setting": "[6]; 31 g ai/ha", "result": 10}, {"measurement": "Plant response rating, Foxtail, Giant", "setting": "[6]; 62 g ai/ha", "result": 10}, {"measurement": "Plant response rating, Foxtail, Giant", "setting": "[6]; 125 g ai/ha", "result": 10}, {"measurement": "Plant response rating, Johnsongrass", "setting": "[7]; 16 g ai/ha", "result": 0}, {"measurement": "Plant response rating, Johnsongrass", "setting": "[7]; 31 g ai/ha", "result": 5}, {"measurement": "Plant response rating, Johnsongrass", "setting": "[7]; 62 g ai/ha", "result": 5}, {"measurement": "Plant response rating, Johnsongrass", "setting": "[7]; 125 g ai/ha", "result": 5}, {"measurement": "Plant response rating, Nutsedge, Yellow", "setting": "[8]; 16 g ai/ha", "result": 5}, {"measurement": "Plant response rating, Nutsedge, Yellow", "setting": "[8]; 31 g ai/ha", "result": 5}, {"measurement": "Plant response rating, Nutsedge, Yellow", "setting": "[8]; 62 g ai/ha", "result": 5}, {"measurement": "Plant response rating, Nutsedge, Yellow", "setting": "[8]; 125 g ai/ha", "result": 10}, {"measurement": "Plant response rating, Velvetleaf", "setting": "[9]; 16 g ai/ha", "result": 10}, {"measurement": "Plant response rating, Velvetleaf", "setting": "[9]; 31 g ai/ha", "result": 10}, {"measurement": "Plant response rating, Velvetleaf", "setting": "[9]; 62 g ai/ha", "result": 20}, {"measurement": "Plant response rating, Velvetleaf", "setting": "[9]; 125 g ai/ha", "result": 25}, {"measurement": "Plant response rating, Ryegrass, Italian", "setting": "[10]; 16 g ai/ha", "result": 5}, {"measurement": "Plant response rating, Ryegrass, Italian", "setting": "[10]; 31 g ai/ha", "result": 5}, {"measurement": "Plant response rating, Ryegrass, Italian", "setting": "[10]; 62 g ai/ha", "result": 5}, {"measurement": "Plant response rating, Ryegrass, Italian", "setting": "[10]; 125 g ai/ha", "result": 10}, {"measurement": "Plant response rating, Galium", "setting": "[11]; 16 g ai/ha", "result": 40}, {"measurement": "Plant response rating, Galium", "setting": "[11]; 31 g ai/ha", "result": 45}, {"measurement": "Plant response rating, Galium", "setting": "[11]; 62 g ai/ha", "result": 80}, {"measurement": "Plant response rating, Galium", "setting": "[11]; 125 g ai/ha", "result": 85}, {"measurement": "Plant response rating, Wheat", "setting": "[12]; 16 g ai/ha", "result": 0}, {"measurement": "Plant response rating, Wheat", "setting": "[12]; 31 g ai/ha", "result": 5}, {"measurement": "Plant response rating, Wheat", "setting": "[12]; 62 g ai/ha", "result": 5}, {"measurement": "Plant response rating, Wheat", "setting": "[12]; 125 g ai/ha", "result": 10}, {"measurement": "Plant response rating, Ragweed", "setting": "[13]; 16 g ai/ha", "result": 10}, {"measurement": "Plant response rating, Ragweed", "setting": "[13]; 31 g ai/ha", "result": 70}, {"measurement": "Plant response rating, Ragweed", "setting": "[13]; 62 g ai/ha", "result": 35}, {"measurement": "Plant response rating, Ragweed", "setting": "[13]; 125 g ai/ha", "result": 40}, {"measurement": "Plant response rating, Blackgrass", "setting": "[14]; 16 g ai/ha", "result": 5}, {"measurement": "Plant response rating, Blackgrass", "setting": "[14]; 31 g ai/ha", "result": 5}, {"measurement": "Plant response rating, Blackgrass", "setting": "[14]; 62 g ai/ha", "result": 5}, {"measurement": "Plant response rating, Blackgrass", "setting": "[14]; 125 g ai/ha", "result": 5}, {"measurement": "Plant response rating, Pigweed", "setting": "[15]; 16 g ai/ha", "result": 35}, {"measurement": "Plant response rating, Pigweed", "setting": "[15]; 31 g ai/ha", "result": 95}, {"measurement": "Plant response rating, Pigweed", "setting": "[15]; 62 g ai/ha", "result": 60}, {"measurement": "Plant response rating, Pigweed", "setting": "[15]; 125 g ai/ha", "result": 80}, {"measurement": "Plant response rating, Crabgrass, Large", "setting": "[16]; 16 g ai/ha", "result": 10}, {"measurement": "Plant response rating, Crabgrass, Large", "setting": "[16]; 31 g ai/ha", "result": 15}, {"measurement": "Plant response rating, Crabgrass, Large", "setting": "[16]; 62 g ai/ha", "result": 15}, {"measurement": "Plant response rating, Crabgrass, Large", "setting": "[16]; 125 g ai/ha", "result": 20}, {"measurement": "Plant response rating, Morningglory", "setting": "[17]; 16 g ai/ha", "result": 10}, {"measurement": "Plant response rating, Morningglory", "setting": "[17]; 31 g ai/ha", "result": 40}, {"measurement": "Plant response rating, Morningglory", "setting": "[17]; 62 g ai/ha", "result": 40}, {"measurement": "Plant response rating, Morningglory", "setting": "[17]; 125 g ai/ha", "result": 60}, {"measurement": "Plant response rating, Chickweed", "setting": "[18]; 16 g ai/ha", "result": 10}, {"measurement": "Plant response rating, Chickweed", "setting": "[18]; 31 g ai/ha", "result": 10}, {"measurement": "Plant response rating, Chickweed", "setting": "[18]; 62 g ai/ha", "result": 50}, {"measurement": "Plant response rating, Chickweed", "setting": "[18]; 125 g ai/ha", "result": 65}, {"measurement": "melting point", "result": "72 to 74", "unit": "°C"}]}]}
